Source: the NIST ThermoML archive (doi:10.1021/je200757a)
Numbers after ± are expanded uncertainties.

Columns and labels:
[1] = for viscosity / mass density: 101 kPa, Liquid; for viscosity: Capillary tube (Ostwald / Ubbelohde) method; for mass density: Vibrating tube method
[2] = refractive index (Na D-line) (dimensionless); details: 101.33 kPa, Liquid
[3] = refractive index (Na D-line) (dimensionless); xn = mol fraction of the nth substance listed; details: 101 kPa, Liquid, x1 = 1
[4] = xn = mol fraction of the nth substance listed; details: x1 = 1; for viscosity / mass density: 101 kPa, Liquid; for viscosity: Capillary tube (Ostwald / Ubbelohde) method; for mass density: Vibrating tube method

Structure (SMILES): CCCCCCCCCCCC [dodecane]
- surface tension liquid-gas ([1]; 293.15 K): 24.07 ± 0.34 mN/m
- viscosity ([1]; 293.15 K): 1.507 ± 0.012 mPa·s
- mass density ([1]; 293.15 K): 748.6 ± 0.2 kg/m3
- viscosity ([1]; 298.15 K): 1.377 ± 0.011 mPa·s
- mass density ([1]; 298.15 K): 745 ± 0.2 kg/m3
- surface tension liquid-gas ([1]; 303.15 K): 23.67 ± 0.34 mN/m
- viscosity ([1]; 303.15 K): 1.266 ± 0.01 mPa·s
- mass density ([1]; 303.15 K): 741.4 ± 0.2 kg/m3
- viscosity ([1]; 313.15 K): 1.084 ± 0.009 mPa·s
- mass density ([1]; 313.15 K): 734.1 ± 0.2 kg/m3
- refractive index ([2]; 293.15 K): 1.4219 ± 0.0013
- refractive index ([2]; 303.15 K): 1.4168 ± 0.0013

Structure (SMILES): CCCCCCCCCCCC [dodecane] + C1C[C@@H]2[C@H]3CC[C@H](C3)[C@@H]2C1
- refractive index ([3]; 293.15 K): 1.4219 ± 0.0013
- refractive index ([3]; 303.15 K): 1.4168 ± 0.0013
- surface tension liquid-gas ([4]; 293.15 K): 24.07 ± 0.34 mN/m
- viscosity ([4]; 293.15 K): 1.507 ± 0.012 mPa·s
- mass density ([4]; 293.15 K): 748.6 ± 0.2 kg/m3
- viscosity ([4]; 298.15 K): 1.377 ± 0.011 mPa·s
- mass density ([4]; 298.15 K): 745 ± 0.2 kg/m3
- surface tension liquid-gas ([4]; 303.15 K): 23.67 ± 0.34 mN/m
- viscosity ([4]; 303.15 K): 1.266 ± 0.01 mPa·s
- mass density ([4]; 303.15 K): 741.4 ± 0.2 kg/m3
- viscosity ([4]; 313.15 K): 1.084 ± 0.009 mPa·s
- mass density ([4]; 313.15 K): 734.1 ± 0.2 kg/m3

Structure (SMILES): C1C[C@@H]2[C@H]3CC[C@H](C3)[C@@H]2C1 [exo-tetrahydrodicyclopentadiene]
- surface tension liquid-gas ([1]; 293.15 K, Capillary rise): 31.86 ± 0.38 mN/m
- viscosity ([1]; 293.15 K): 3.077 ± 0.035 mPa·s
- mass density ([1]; 293.15 K): 935.3 ± 0.8 kg/m3
- viscosity ([1]; 298.15 K): 2.784 ± 0.032 mPa·s
- mass density ([1]; 298.15 K): 931.4 ± 0.8 kg/m3
- surface tension liquid-gas ([1]; 303.15 K, Capillary rise): 31.09 ± 0.38 mN/m
- viscosity ([1]; 303.15 K): 2.525 ± 0.029 mPa·s
- mass density ([1]; 303.15 K): 927.5 ± 0.8 kg/m3
- viscosity ([1]; 313.15 K): 2.112 ± 0.024 mPa·s
- mass density ([1]; 313.15 K): 919.6 ± 0.7 kg/m3
- refractive index ([2]; 293.15 K): 1.4877 ± 0.0013
- refractive index ([2]; 303.15 K): 1.4832 ± 0.0013

Structure (SMILES): CCCCCCCCC [nonane]
- surface tension liquid-gas ([1]; 293.15 K, Capillary rise): 22.2 ± 0.24 mN/m
- viscosity ([1]; 293.15 K): 0.733 ± 0.006 mPa·s
- mass density ([1]; 293.15 K): 717.8 ± 0.3 kg/m3
- viscosity ([1]; 298.15 K): 0.687 ± 0.006 mPa·s
- mass density ([1]; 298.15 K): 713.9 ± 0.3 kg/m3
- surface tension liquid-gas ([1]; 303.15 K, Capillary rise): 21.41 ± 0.23 mN/m
- viscosity ([1]; 303.15 K): 0.647 ± 0.005 mPa·s
- mass density ([1]; 303.15 K): 710 ± 0.3 kg/m3
- viscosity ([1]; 313.15 K): 0.579 ± 0.005 mPa·s
- mass density ([1]; 313.15 K): 702.1 ± 0.3 kg/m3
- refractive index ([2]; 293.15 K): 1.4048 ± 0.0013
- refractive index ([2]; 303.15 K): 1.4001 ± 0.0013

Structure (SMILES): CCCCCCCCC [nonane] + C1C[C@@H]2[C@H]3CC[C@H](C3)[C@@H]2C1
- refractive index ([3]; 293.15 K): 1.4048 ± 0.0013
- refractive index ([3]; 303.15 K): 1.4001 ± 0.0013
- surface tension liquid-gas ([4]; 293.15 K, Capillary rise): 22.2 ± 0.24 mN/m
- viscosity ([4]; 293.15 K): 0.733 ± 0.006 mPa·s
- mass density ([4]; 293.15 K): 717.8 ± 0.3 kg/m3
- viscosity ([4]; 298.15 K): 0.687 ± 0.006 mPa·s
- mass density ([4]; 298.15 K): 713.9 ± 0.3 kg/m3
- surface tension liquid-gas ([4]; 303.15 K, Capillary rise): 21.41 ± 0.23 mN/m
- viscosity ([4]; 303.15 K): 0.647 ± 0.005 mPa·s
- mass density ([4]; 303.15 K): 710 ± 0.3 kg/m3
- viscosity ([4]; 313.15 K): 0.579 ± 0.005 mPa·s
- mass density ([4]; 313.15 K): 702.1 ± 0.3 kg/m3

Structure (SMILES): CCCCCCCCCCCCC [tridecane]
- surface tension liquid-gas ([1]; 293.15 K): 24.79 ± 0.34 mN/m
- viscosity ([1]; 293.15 K): 1.894 ± 0.014 mPa·s
- mass density ([1]; 293.15 K): 756.5 ± 0.2 kg/m3
- viscosity ([1]; 298.15 K): 1.726 ± 0.013 mPa·s
- mass density ([1]; 298.15 K): 752.9 ± 0.2 kg/m3
- surface tension liquid-gas ([1]; 303.15 K): 24.08 ± 0.34 mN/m
- viscosity ([1]; 303.15 K): 1.577 ± 0.012 mPa·s
- mass density ([1]; 303.15 K): 749.3 ± 0.2 kg/m3
- viscosity ([1]; 313.15 K): 1.325 ± 0.01 mPa·s
- mass density ([1]; 313.15 K): 742.2 ± 0.2 kg/m3
- refractive index ([2]; 293.15 K): 1.4253 ± 0.0013
- refractive index ([2]; 303.15 K): 1.4213 ± 0.0013

Structure (SMILES): CCCCCCCCCCCCC [tridecane] + C1C[C@@H]2[C@H]3CC[C@H](C3)[C@@H]2C1
- refractive index ([3]; 293.15 K): 1.4253 ± 0.0013
- refractive index ([3]; 303.15 K): 1.4213 ± 0.0013
- surface tension liquid-gas ([4]; 293.15 K): 24.79 ± 0.34 mN/m
- viscosity ([4]; 293.15 K): 1.894 ± 0.014 mPa·s
- mass density ([4]; 293.15 K): 756.5 ± 0.2 kg/m3
- viscosity ([4]; 298.15 K): 1.726 ± 0.013 mPa·s
- mass density ([4]; 298.15 K): 752.9 ± 0.2 kg/m3
- surface tension liquid-gas ([4]; 303.15 K): 24.08 ± 0.34 mN/m
- viscosity ([4]; 303.15 K): 1.577 ± 0.012 mPa·s
- mass density ([4]; 303.15 K): 749.3 ± 0.2 kg/m3
- viscosity ([4]; 313.15 K): 1.325 ± 0.01 mPa·s
- mass density ([4]; 313.15 K): 742.2 ± 0.2 kg/m3
